As a reminder, the Ki is the equilibrium dissociation constant of an inhibitor or competing ligand from its target. Read a low Ki as higher affinity.

In assay [1] the target is T1, D(3) dopamine receptor (Homo sapiens, UniProt P35462). The assay is described as follows: Functional activity in vitro using microphysiometry at Dopamine receptor D3; Agonist. The settings on record: filed as agonist.
Assay [2] deals with T1, D(3) dopamine receptor.
Description: Tested for the ability to displace [125I]iodosulpiride from human cloned Dopamine receptor D3, expressed in CHO cells
Assay [3] has as its target T2, D(2) dopamine receptor (Homo sapiens, UniProt P14416). In words: Tested for the ability to displace [125I]iodosulpiride from human cloned Dopamine receptor D2, expressed in CHO cells. Format: cell-based.
Assay [4] deals with T1, D(3) dopamine receptor. The assay is described as follows: Tested for the functional activity in vitro using microphysiometry at Dopamine receptor D3; antagonist. The settings on record: filed as antagonist.
Assay [5] addresses T2, D(2) dopamine receptor. In words: Displacement of [125I]iodosulpiride from human Dopamine receptor D2 expressed in CHO cells. The assay is classed as cell-based. On the technique in general: Loss of bound radioactivity is the signal in a displacement assay; it reports binding, not function.

Structures are written as SMILES.

T1 sequence (P35462 whole entry): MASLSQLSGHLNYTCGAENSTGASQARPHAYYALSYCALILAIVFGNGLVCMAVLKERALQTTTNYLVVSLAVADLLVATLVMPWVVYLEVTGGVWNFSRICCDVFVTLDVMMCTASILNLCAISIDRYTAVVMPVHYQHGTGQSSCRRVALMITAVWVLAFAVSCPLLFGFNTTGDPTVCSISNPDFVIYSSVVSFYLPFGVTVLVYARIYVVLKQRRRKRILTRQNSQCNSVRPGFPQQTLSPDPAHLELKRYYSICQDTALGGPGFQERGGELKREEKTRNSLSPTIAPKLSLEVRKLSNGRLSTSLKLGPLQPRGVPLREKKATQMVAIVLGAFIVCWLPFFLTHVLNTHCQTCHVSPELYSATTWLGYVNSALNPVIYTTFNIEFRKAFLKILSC
T2 sequence (P14416 whole entry): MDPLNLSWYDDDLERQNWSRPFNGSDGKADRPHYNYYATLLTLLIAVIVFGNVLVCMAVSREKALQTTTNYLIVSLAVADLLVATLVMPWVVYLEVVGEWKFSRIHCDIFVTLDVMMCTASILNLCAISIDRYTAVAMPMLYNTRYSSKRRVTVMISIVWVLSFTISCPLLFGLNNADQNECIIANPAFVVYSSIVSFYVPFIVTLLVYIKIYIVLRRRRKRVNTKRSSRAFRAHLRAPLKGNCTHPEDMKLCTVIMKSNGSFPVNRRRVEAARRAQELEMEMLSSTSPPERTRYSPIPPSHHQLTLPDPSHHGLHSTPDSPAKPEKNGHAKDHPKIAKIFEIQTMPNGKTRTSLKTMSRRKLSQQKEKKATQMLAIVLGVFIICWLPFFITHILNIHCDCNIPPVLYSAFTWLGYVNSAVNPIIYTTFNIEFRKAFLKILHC

Consider `CCCN(CCCCNC(=O)c1ccc(-c2ccccc2)cc1)C1CCc2nc(N)ncc2C1` (stereo not given), for which, in assay [1], the Function result is “Agonist”. In addition, the Ki is 0.794 nM in assay [2] and 158 nM in assay [3].
Take `CCCN(CCCCNC(=O)c1ccc(-c2ccccc2)cc1)C1CCc2ncncc2C1` (stereo not given): the figures for the Ki in assay [2] and in assay [3] were 126 nM and 1260 nM, respectively.
With `CCCN(CCCCNC(=O)c1ccc(-c2ccccc2)cc1)C1CCc2nc(C(C)(C)C)ncc2C1` (stereo not given), the Function result in assay [4] is “Antagonist”. For the same compound, the Ki was 12.6 nM in assay [2] and 1580 nM in assay [3].
Turning to `CN(CCCCNC(=O)c1ccc(-c2ccccc2)cc1)C1CCc2nc(N)ncc2C1` (stereo not given), the Function result in assay [1] is “Agonist”. In addition, the Ki was 10 nM in assay [2] and 1580 nM in assay [3].
As for `CCCN(CCCCNC(=O)c1ccc(-c2ccccc2)cc1)C1CCc2ncnc(OC)c2C1` (stereo not given), the Function result in assay [1] is “Agonist”. Moreover, the Ki is 3.16 nM in assay [2] and 1580 nM in assay [3].
With `CCCN(CCCCNC(=O)c1ccc(-c2ccccc2)cc1)C1CCc2nc(N(C)C)ncc2C1` (stereo not given), the Function result in assay [4] was “Antagonist”. Also, the results for the Ki in assay [2] and in assay [3] were 25.1 nM and 1580 nM, respectively.
As for `CCCNC1CCc2nc(N)sc2C1` (stereo not given), the affinity in assay [2] corresponds to a Ki of 10 nM.
Consider `CCCN1COC[C@@H]2c3cc(O)ccc3OC[C@H]21`, for which the Ki is 2510 nM in assay [5] and 25.1 nM in assay [2].
On to `CCCN(CCCCNC(=O)c1ccc(-c2ccccc2)cc1)C1CCc2nc(N)sc2C1` (stereo not given), for which the Function result in assay [1] was “Agonist”. The Ki in assay [2] was 0.501 nM; in assay [3], 200 nM.
In the case of `CCCN(CCCCNC(=O)c1ccc(-c2ccccc2)cc1)C1CCc2n[nH]cc2C1` (stereo not given), the Function entry in assay [1] is “Agonist”. Besides, the Ki in assay [2] is 3.16 nM; in assay [3], 501 nM.
In the case of `CCCN(CCCCNC(=O)c1ccc(-c2ccccc2)cc1)C1CCc2nc(NC)ncc2C1` (stereo not given), the Function result in assay [1] was “Agonist”. For the same compound, the Ki in assay [2] was 15.8 nM; in assay [3], 2510 nM.
Consider `CCCN(CCCCNC(=O)c1ccc(-c2ccccc2)cc1)C1CCc2nc(SC)ncc2C1` (stereo not given), for which the Function result in assay [4] was “Antagonist”. Also, the values for the Ki in assay [2] and in assay [3] were 15.8 nM and 1260 nM, respectively.
Consider `CCCN(CCCCNC(=O)c1ccc(-c2ccccc2)cc1)C1CCc2nc(C)ncc2C1` (stereo not given), for which the Function result in assay [1] was “Agonist”. The values for the Ki in assay [2] and in assay [3] were 7.94 nM and 2510 nM, respectively.
